Laboratory results from US20060235222A1, “Indole-derivative modulators of steroid hormone nuclear receptors” (ELI LILLY AND COMPANY, priority 2003, published 2006).

Tests used:
human MR = target: T1, human MR (Homo sapiens, UniProt P08235); test: Mineralocorticoid Receptor Binding Assay (Method 1), [3H]-aldosterone competition; conditions: 0.5 nM [3H]-aldosterone, human MR expressed in Sf9 cells
T1 construct: The full length human MR gene is cloned from a human kidney or human brain cDNA library; inferred from own knowledge of the pAcHLT vector (N); made in house; host or cells: Sf9 insect cells (baculovirus)
T1 sequence (P08235 1-984): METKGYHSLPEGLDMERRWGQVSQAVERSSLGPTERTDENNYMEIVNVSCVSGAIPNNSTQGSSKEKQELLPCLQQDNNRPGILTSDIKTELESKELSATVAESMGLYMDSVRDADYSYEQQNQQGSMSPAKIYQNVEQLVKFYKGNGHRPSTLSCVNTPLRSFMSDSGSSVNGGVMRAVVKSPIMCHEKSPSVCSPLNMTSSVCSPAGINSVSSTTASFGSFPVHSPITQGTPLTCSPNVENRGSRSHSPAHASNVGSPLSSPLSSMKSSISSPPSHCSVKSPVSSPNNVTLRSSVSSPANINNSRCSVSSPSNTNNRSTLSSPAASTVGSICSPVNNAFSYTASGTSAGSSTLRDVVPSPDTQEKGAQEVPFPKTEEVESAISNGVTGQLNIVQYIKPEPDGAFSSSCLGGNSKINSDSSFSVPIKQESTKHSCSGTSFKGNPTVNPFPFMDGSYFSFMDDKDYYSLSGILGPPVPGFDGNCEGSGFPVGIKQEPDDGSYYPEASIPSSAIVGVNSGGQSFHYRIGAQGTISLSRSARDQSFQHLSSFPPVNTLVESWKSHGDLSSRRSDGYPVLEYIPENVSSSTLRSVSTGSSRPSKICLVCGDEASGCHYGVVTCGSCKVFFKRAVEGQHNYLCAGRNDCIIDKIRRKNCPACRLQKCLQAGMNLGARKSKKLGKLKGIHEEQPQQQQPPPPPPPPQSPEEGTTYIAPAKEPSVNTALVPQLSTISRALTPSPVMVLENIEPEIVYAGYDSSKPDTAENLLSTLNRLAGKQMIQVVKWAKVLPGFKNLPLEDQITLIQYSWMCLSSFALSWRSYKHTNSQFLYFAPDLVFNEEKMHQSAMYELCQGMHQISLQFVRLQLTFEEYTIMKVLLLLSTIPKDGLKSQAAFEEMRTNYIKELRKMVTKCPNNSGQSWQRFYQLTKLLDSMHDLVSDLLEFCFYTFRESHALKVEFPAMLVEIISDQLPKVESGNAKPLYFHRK
In short: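 Full-length human MR expressed in Sf9 cells via baculovirus; lysate supernatant (about 20-25 μg protein) incubated with 0.5 nM [3H]-aldosterone and test compound for about 16 h at 4° C. Buffer was Tris/molybdate/phosphate/pyrophosphate with 10% glycerol, pH 7.5; filter-bound complex counted by scintillation.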

[1] = target: T2, human GR (glucocorticoid receptor) (Homo sapiens, UniProt P04150); test: Alternative Binding Assay Protocol (Method 2), 293-GR lysate, 3H-dexamethasone competition; conditions: 0.3 nM 3H-dexamethasone
T2 construct: expressed in transfected cells; host or cells: 293 cells
T2 sequence (P04150 1-777): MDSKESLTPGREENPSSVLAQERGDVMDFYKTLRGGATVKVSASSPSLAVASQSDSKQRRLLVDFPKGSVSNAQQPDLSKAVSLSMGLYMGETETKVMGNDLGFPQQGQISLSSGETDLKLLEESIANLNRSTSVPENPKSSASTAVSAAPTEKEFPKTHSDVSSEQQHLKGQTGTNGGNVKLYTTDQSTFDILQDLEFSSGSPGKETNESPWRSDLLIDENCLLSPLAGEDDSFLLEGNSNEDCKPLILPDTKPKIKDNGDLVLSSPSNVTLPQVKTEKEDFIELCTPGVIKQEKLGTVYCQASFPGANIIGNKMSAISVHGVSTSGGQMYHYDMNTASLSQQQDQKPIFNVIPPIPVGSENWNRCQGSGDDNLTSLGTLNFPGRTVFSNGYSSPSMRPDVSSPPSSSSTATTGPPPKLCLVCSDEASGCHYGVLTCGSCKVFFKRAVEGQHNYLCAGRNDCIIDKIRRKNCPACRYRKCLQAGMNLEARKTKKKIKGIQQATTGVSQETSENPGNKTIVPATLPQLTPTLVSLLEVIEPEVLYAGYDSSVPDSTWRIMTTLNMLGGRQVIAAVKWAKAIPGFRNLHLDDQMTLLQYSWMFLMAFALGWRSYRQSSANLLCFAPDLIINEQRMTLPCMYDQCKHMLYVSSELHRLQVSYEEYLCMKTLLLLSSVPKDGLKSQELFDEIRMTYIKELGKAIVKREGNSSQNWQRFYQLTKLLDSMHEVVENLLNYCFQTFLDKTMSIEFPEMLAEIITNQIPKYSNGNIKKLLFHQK
Description: Alternative Binding Assay Protocol for MR, GR, AR, and PR (Method 2):
Cell lysates from 293 cells overexpressing human GR (glucocorticoid receptor), AR (androgen receptor), MR (mineralocorticoid receptor) or PR (progesterone-receptor) are used for competition binding assays to determine Ki values for test compounds. […] Competing compounds are added at various concentraions in half-log increments. Non-specific binding is determined in the presence of 500 nM dexamethasone for GR binding, 500 nM aldosterone for MR binding, or 500 nM methyltrienolone for AR and PR binding. The binding reaction (140 μl) is incubated for overnight at 4° C., then 70 μl of cold charcoal-dextran buffer (containing per 50 ml of assay buffer, 0.75 g of charcoal and 0.25 g of dextran) is added to each reaction. Plates are mixed 8 minutes on an orbital shaker at 4° C. Plates are then centrifuged at 3,000 rpm at 4° C. for 10 minutes. An aliquot of 120 μl of the mix is transferred to another 96-well plate and 175 μl of Wallac Optiphase “Hisafe 3” scintillation fluid is added to each well. Plates are sealed and shaken vigorously on an orbital shaker. After an incubation of 2 hrs, plates are read in a Wallac Microbeta counter. […] The Kd for ^3H-dexamethasone for GR binding, ^3H-methyltrienolone for AR binding, ^3H-aldosterone for MR binding, or ^3H-methyltrienolone for PR binding, is determined by saturation binding. The IC50 values for compounds are converted to Ki using Cheng-Prusoff equation and the Kd determined by saturation binding assay.

[2] = system: patients suffering from advanced CHF; conditions: in combination with standard CHF therapy; cited from earlier work

Structure (SMILES)	Ki (human MR) [nM]	Ki [1] [nM]	melting point	reduced cardiac related mortality [2] [%]	reduced frequency of hospitalization [2] [%]
CCC(CC)(c1ccc2[nH]cnc2c1)c1c[nH]c2c(NS(C)(=O)=O)cccc12 [Example 134, N-{3-[1-(1H-Benzoimidazol-5-yl)-1-ethyl-propyl]-1H-indol-7-yl}-methanesulfonamide]	< 500	< 500	150 to 165 °C		
CCC(CC)(c1ccc2ncoc2c1)c1c[nH]c2c(NS(C)(=O)=O)cccc12 [Example 137, N-[3-(1-Benzooxazol-6-yl-1-ethyl-propyl)-1H-indol-7-yl]-methanesulfonamide]	< 500	< 500	211 to 213 °C		
CCC(CC)(c1ccc2ccsc2c1)c1c[nH]c2c(NS(C)(=O)=O)cccc12 [Example 139, N-[3-(1-Benzo[b]thiophen-6-yl-1-ethyl-propyl)-1H-indol-7-yl]-methanesulfonamide]	< 500	< 500	97 to 107 °C		
CCC(CC)(c1ccc2nc(C)oc2c1)c1c[nH]c2c(NS(C)(=O)=O)cccc12 [Example 136, N-{3-[1-Ethyl-1-(2-methyl-benzooxazol-6-yl)-propyl]-1H-indol-7-yl}-methanesulfonamide]	< 500	< 1000	98 to 105 °C		
CCC(CC)(c1ccc2[nH]nnc2c1)c1c[nH]c2c(NS(C)(=O)=O)cccc12 [Example 153, N-{3-[1-(3H-Benzotriazol-5-yl)-1-ethyl-propyl]-1H-indol-7-yl}-methanesulfonamide]	< 500	< 500	165 to 172 °C		
CCC(CC)(c1ccc2sc(N)nc2c1)c1c[nH]c2c(NS(C)(=O)=O)cccc12 [Example 141, N-{3-[1-(2-Amino-benzothiazol-5-yl)-1-ethyl-propyl]-1H-indol-7-yl}-methanesulfonamide]	< 500	< 500	260 to 263 °C (dec.)		
CCC(CC)(c1ccc2[nH]ncc2c1)c1c[nH]c2c(NS(C)(=O)=O)cccc12 [Example 138, N-{3-[1-Ethyl-1-(1H-indazol-5-yl)-propyl]-1H-indol-7-yl}-methanesulfonamide]	< 500	< 500	123 to 128 °C		
CCC(CC)(c1ccc2ocnc2c1)c1c[nH]c2c(NS(C)(=O)=O)cccc12 [Example 146, N-[3-(1-Benzooxazol-5-yl-1-ethyl-propyl)-1H-indol-7-yl]-methanesulfonamide]	< 500	< 500	132 to 135 °C		
CCC(CC)(c1ccc2sc(Cl)nc2c1)c1c[nH]c2c(NS(C)(=O)=O)cccc12 [Example 161, N-{3-[1-(2-Chloro-benzothiazol-5-yl)-1-ethyl-propyl]-1H-indol-7-yl}-methanesulfonamide]	< 500	< 500	217 to 220 °C		
CCC(CC)(c1ccc2nc(Cl)sc2c1)c1c[nH]c2c(NS(C)(=O)=O)cccc12 [Example 148, N-{3-[1-(2-Chloro-benzothiazol-6-yl)-1-ethyl-propyl]-1H-indol-7-yl}-methanesulfonamide]	< 500	< 500	180 to 190 °C		
CCC(CC)(c1ccc2nc(NC(C)=O)sc2c1)c1c[nH]c2c(NS(C)(=O)=O)cccc12 [Example 147, N-{6-[1-Ethyl-1-(7-methanesulfonylamino-1H-indol-3-yl)-propyl]-benzothiazol-2-yl}-acetamide]	< 500	< 500	286 to 288 °C		
CC(=O)S[C@@H]1CC2=CC(=O)CC[C@]2(C)[C@H]2CC[C@@]3(C)[C@@H](CC[C@@]34CCC(=O)O4)[C@H]12 [spironolactone]				30	35
CCC(CC)(c1ccc2sccc2c1)c1c[nH]c2c(NS(C)(=O)=O)cccc12 [Example 135, N-[3-(1-Benzo[b]thiophen-5-yl-1-ethyl-propyl)-1H-indol-7-yl]-methanesulfonamide]	< 500	< 500	85 to 95 °C		
